What was measured:
flavoHb-NOD = target: T1, flavoHb-NOD (Escherichia coli, UniProt P24232); test: H2O2 sensitivity of the flavoHb-NOD; assay type: biochemical; conditions: for protection of flavoHb-NOD against H2O2: resting state, 2 mM ascorbate or 10 µM miconazole
T1 construct: made in house; host or cells: E. coli hmp deletion strain AG103 carrying pUC19hmp
Procedure: Figure S5. H2O2 sensitivity of the flavoHb-NOD. NOD activity of flavoHb is rapidly lost upon exposure to H2O2 (panel A), and heme absorbance decreases with H2O2 exposure (panel B). The peroxidizable substrate ascorbate and the heme ligand miconazole (6) afford protection thus […]
(A) FlavoHb (0.1 µM heme) […]
was exposed to 0 (○), 50 (◼) or 200 µM H2O2 (●). Catalase (1000 U/mL) was added at various times to terminate reactions, and NOD activity was measured as described under Experimental Procedures. (B) Ferric flavoHb (5 µM heme) was exposed to 200 µM H2O2, and spectra were recorded at 2 min intervals (solid lines) or after a 10 min exposure in the presence of 2 mM ascorbate (dashed line) or 10 µM miconazole (dotted line). Reactions were at 37°C in 50 mM potassium phosphate buffer, pH 7.8, containing 0.1 mM EDTA. Error bars represent the S.D. of […]
(1 picture or pasted object on this page, not shown here)

E. coli flavoHb-NOD [1] = target: E. coli flavoHb-NOD (Escherichia coli, UniProt P24232, K84N); conditions: 1000 U of catalase
Procedure: (§1) NOD activity was measured amperometrically in 100 mM phosphate buffer, pH 7.0, containing 0.3 mM EDTA, 100 μg/ml bovine serum albumin (BSA) (Fraction V), 100 μM NADH, 0.1 μM FAD with NO, O2, and N2 mixtures added as described ([4], [72]). NADH oxidase activity was followed spectrophotometrically at 340 nm in a 1.0-ml cuvette containing 90 mM Tris chloride buffer, pH 8.2, 100 μM NADH, 200 μM O2, 0.1 μM FAD, 100 μg/ml BSA, and 0.3 mM EDTA and incubated at 37 °C. Cytochrome b5 reductase activity was assayed at 37 °C by following the rate of absorbance increase at 555 nm in a 1.0-ml reaction buffered with 90 mM Tris chloride, pH 8.2, and containing 10 μM ferric cytochrome b5, 200 μM O2, 20 μM NADH, 0.1 μM FAD, 100 μg/ml BSA, and 0.3 mM EDTA. TMAO reductase activity was assayed by following the absorbance decrease at 340 nm in a 1.0-ml anaerobic reaction containing 12 U Aspergillus niger glucose oxidase, 5 mM glucose, 260 U catalase, 400 mM TMAO, 100 μM NADH, 0.1 μM FAD, 100 μg/ml BSA, and 0.3 mM EDTA in 90 mM Tris chloride pH 8.2 and incubated at 37 °C. Ngb reductase activity was assayed by following the absorbance increase at 424 nm in a 1.0-ml anaerobic reaction containing 12 U glucose oxidase, 5 mM glucose, 260 U catalase, 5 μM Ngb, 50 μM NADH, 0.1 μM FAD, 100 μg/ml BSA, and 0.3 mM EDTA in 90 mM Tris chloride buffer, pH 8.2, and incubated at 37 °C. Methyl viologen reductase activity was assayed by following the formation of the blue cation radical at 603 nm and by applying an extinction coefficient of 13,300 M^−1 cm^−1 in a 1.0-ml anaerobic reaction buffered with 10 mM potassium phosphate, pH 7.0, and containing 12 U glucose oxidase, 5 mM glucose, 260 U catalase, 100 μM NADH, 0.1 μM FAD, 100 μg/ml BSA, 0.3 mM EDTA, and 200 mM sodium chloride and incubated at 37 °C. NO reductase activity was assayed amperometrically at 37 °C in a 1.0-ml anaerobic reaction containing 2 μM NO, 100 μM NADH, 0.1 μM FAD, 12 U glucose oxidase, 5 mM glucose, 260 U catalase, 100 μg/ml BSA, and 0.3 mM EDTA buffered with 10 mM potassium phosphate pH 7.0. CO effects were tested at a final concentration of 50 μM as diluted from a 1 mM stock in water. All activities are reported relative to the heme content of flavoHb.

E. coli flavoHb-NOD [2] = target: E. coli flavoHb-NOD (Escherichia coli, UniProt P24232); assay type: biochemical; set-up: made in house; host or cells: E. coli hmp deletion strain AG103 carrying pUC19hmp
Excerpt: We have formulated a steady-state velocity equation for the catalytic cycle with the activating trigger step (KT) (Equation 1).(1) v= Vmax(a) where a=([NO]^2[O2]^2/K1K2K3KTK4)/(1+([O2]/K1)+([O2]^2/K1K2)+(([O2]^2[NO])/K1K2K3)+(([O2]^2[NO])/K1K2K3KT)+(([O2]^2[NO]^2)/K1K2K3KTK4))
(2) v= Vmax(a)(b) where b=[NO]/(K3+([NO](1+((K2/[O2])(1+([NO]/Ki(NO)))))))
In addition, we have introduced a factor and equilibrium constant Ka(O2) for rare situations in which O2 causes an additional NO-independent activation of catalysis possibly by occupying unique binding sites or cavities (Equation 5).
as §1
Rate constants were estimated from the model kinetic equation using Python programming with successive approximations to optimize fits with varying NO and O2 concentrations. Vmax, K1, K2, KT, and Kii(NO) values were treated as independent variables for a given flavoHb while allowing K3, K4, and Ki(NO) to vary over limited ranges with varying O2 concentration. Kii(NO) was estimated from NO inhibition at saturating O2 concentrations.

TMAO reductase activity = assay type: biochemical; conditions: CO 50 μM; AsnF7 variant
[3] = target: flavoHb heme (Fe^2+ / Fe^3+) (Escherichia coli, UniProt P24232, Y29F); conditions: PheB10 variant; 100 μM CO
Procedure: (§2) FAD and heme reduction were monitored by following the changes in flavoHb absorbance at 460 and 430 nm, respectively, with stopped-flow rapid mixing of 50 μM NADH and 10 μM flavoHb in N2-purged buffer ([4]). O2, NO, and CO association rate constants were determined by photolyzing 50 μM of the respective ferrous flavoHb species with a 300-ns pulse from a 577-nm laser and by spectrophotometrically following ligand reassociation in O2-, NO-, or CO-saturated buffer unless otherwise indicated ([4], [5]). […] Binding of NO was measured by the change of absorbance at 422 nm by applying a difference extinction coefficient of 0.040 μM^−1 cm^−1. O2 and CO dissociation rate constants were determined by stopped-flow rapid mixing with either CO or NO displacement ([4], [5]). The cuvette path length was 1.0 cm. All reactions were at 20 °C in filtered 100 mM sodium phosphate buffer, pH 7.0, containing 0.3 mM EDTA. Catalase (1000 U/ml) was included in all reactions containing O2 to scavenge H2O2 produced by the NADH oxidase activity of flavoHb and to regenerate O2.

[4] = target: flavoHb heme (Fe^2+ / Fe^3+) (Escherichia coli, UniProt P24232, Q53H); conditions: HisE7 variant; 100 μM CO
Procedure: as §2

[5] = target: flavoHb heme (Fe^2+ / Fe^3+) (Escherichia coli, UniProt P24232)
Procedure: as §2

E. coli flavoHb-NOD [6] = conditions: read-out: Ki(CO); cited from earlier work

Compound: OO [H2O2]
- effect of H2O2 on flavoHb-NOD activity (flavoHb-NOD; 50 or 200 µM H2O2): sensitive

Compound: Catalase
- protection of AsnF7 NOD activity from inactivation (E. coli flavoHb-NOD [1]): modest protection

Compound: Clc1ccc(COC(Cn2ccnc2)c2ccc(Cl)cc2Cl)c(Cl)c1 (stereo not shown) [miconazole]
- protection of flavoHb-NOD against H2O2 (flavoHb-NOD): protect

Compound: O=O [O2]
- inhibition by O2 with respect to NO (E. coli flavoHb-NOD [2]): no competitive inhibition
- selectivity for O2 over N2 (E. coli flavoHb-NOD [2]): greater than 80 fold

Compound: [C-]#[O+] [CO, reference compound]
- inhibition of TMAO reduction (TMAO reductase activity): ~90%
- inhibition of O2 migration and binding in the slow phase [3]: ~50%
- inhibition of O2 migration and binding in the slow phase [4]: ~50%
- inhibition of fast phase of O2 rebinding [5]: ~10%
- inhibition of slow phase of O2 rebinding [5]: 86%
- Ki (E. coli flavoHb-NOD [6]): ~1 µM

Compound: nitric oxide [NO]
- inhibition of NOD activity by NO (E. coli flavoHb-NOD [2]; 1:100 ratio of NO to O2, reversible, competitive with O2): roughly 50%

Compound: O=C1O[C@H]([C@@H](O)CO)C(O)=C1O [ascorbate]
- protection of flavoHb-NOD against H2O2 (flavoHb-NOD): protect

— PMC7948479, “Allostery in the nitric oxide dioxygenase mechanism of flavohemoglobin” (The Journal of Biological Chemistry, 2020)
